Measurements: patent US8546406B2, “Heterocyclic compounds as metap-2 inhibitors” (Merck Patent GmbH, priority 2009, dated 2013)

Experiments:
MetAP-2 = MetAP-2 (Homo sapiens, UniProt P50579); assay: MetAP-2 activity measurement (coupled enzymatic reactions, substrate Met-Arg-Ser, photometric at 450 nm); assay type: biochemical; conditions: Inhibition of MetAP-2; read-out: IC50 enzyme
Method: The MetAP-2 activity is determined by coupling enzymatic reactions. The tripeptide Met-Arg-Ser (MAS) is employed as substrate. The methionine liberated is firstly converted into Metox and H2O2 by L-aminooxidase (AAO). In the second step, the peroxidase (POD) with the aid of the H2O2 catalyses the oxidation of the leukodye dianisidine to dianisidineox, the increase of which is detected photometrically at 450 nm.
MetAP-2 activity can be recorded continuously as kinetics. The reaction scheme illustrates that one mol of dianisidineox is formed per mol of methionene. The MetAP-2 enzyme activity can therefore be calculated directly as Δ absorption per time unit. Qualification of the MetAP-2 activity (mol of Met/time unit) is possible with the aid of the dianisidineox extinction coefficient. The change in extinction per time unit is depicted graphically and a slope calculation is carried out in the visually linear region of the reaction.

Chain of MetAP-2 (P50579 whole entry, species assumed): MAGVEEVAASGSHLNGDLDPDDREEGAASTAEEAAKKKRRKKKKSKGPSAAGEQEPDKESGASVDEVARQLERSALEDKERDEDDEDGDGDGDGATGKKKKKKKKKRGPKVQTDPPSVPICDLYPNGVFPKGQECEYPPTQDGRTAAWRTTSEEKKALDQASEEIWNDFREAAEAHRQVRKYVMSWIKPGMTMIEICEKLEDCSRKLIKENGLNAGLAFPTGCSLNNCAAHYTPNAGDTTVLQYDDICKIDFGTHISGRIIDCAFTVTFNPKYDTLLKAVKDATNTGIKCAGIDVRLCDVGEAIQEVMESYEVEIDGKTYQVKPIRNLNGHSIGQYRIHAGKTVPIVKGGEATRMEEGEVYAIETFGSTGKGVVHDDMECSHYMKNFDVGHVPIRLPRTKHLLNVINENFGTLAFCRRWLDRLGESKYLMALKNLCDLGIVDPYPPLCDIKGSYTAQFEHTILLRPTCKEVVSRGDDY

Compound | IC50 (MetAP-2) | melting point
c1cc(OC[C@H]2CCCN2c2ccnc3ncnn23)c2cccnc2c1 [Compound A5, 5-((R)-1-[1,2,4]triazolo[1,5-a]pyrimidin-7-ylpyrrolidin-2-ylmethoxy)quinoline] | 10 to 1000 nM | 93 to 95 °C
c1cnn(-c2ccnc3ncnn23)c1 [Compound A2, 7-pyrazol-1-yl-[1,2,4]triazolo[1,5-a]pyrimidine] | > 10000 nM | 191 to 193 °C
O=C(O)Cc1ccccc1OC[C@H]1CCCN1c1ccnc2ncnn12 [Compound A57] | > 10000 nM | 
O=C(NCCc1ccc(Cl)cc1)c1cc(OC[C@H]2CCCN2c2ccnc3ncnn23)c2ccccc2n1 [Compound A28] | 1000 to 10000 nM | 
c1ccc2c(OC[C@H]3CCCN3c3ccnc4ncnn34)nccc2c1 [Compound A16] | 10 to 1000 nM | 
CC(=O)N[C@@H](CC(N)=O)C(=O)N1CCc2cccc(OC[C@H]3CCCN3c3ccnc4ncnn34)c2C1 [Compound A32] | 10 to 1000 nM | 
